From patent US9657273B2, “Method for suppressing teratoma formation via selective cell death induction in undifferentiated human-induced pluripotent stem cells” (Industry-University Cooperation Foundation Sogang University, priority 2012, dated 2017) come the findings set out here.

The subject of one assay is iPS-SMC1 and iPS-SMC3. Nature of the assay: Measurement of intracellular calcium (Fura-2) after ATP or 75 mM K+. The format is cell-based, human. Conditions: 50 μM quercetin, 24 hours, then ATP or 75 mM potassium solution. The procedure: In order to confirm the functions of the differentiated cells which were completely differentiated into smooth muscle cells, an intracellular calcium reaction was used. As described in the reference article (Lee et al., 2006), intracellular or extracellular calcium transients were induced using pharmacological reagents, ATP or 75 mM K^+ solution, and the values were numerized in fluorescence using a calcium indicator Fura-2 (Molecular Probes, Eugene, Oreg.), and imaged.
A general note: Calcium flux is commonly read through the fluorescence of an indicator in the cells.

Assay [1] deals with human induced pluripotent stem cells (iPS). The assay can be described thus: Apoptosis-specific cell phenotype observed under microscope. The format is cell-based. The procedure: Human induced pluripotent stem cells (iPS) derived from human aortic smooth muscle cells (HASMC) was subcultured in an ESC medium (DMEM/F/12 supplemented with a 20% KnockOutTM serum replacement, 0.1% gentamycin, 1% non-essential amino acids, 0.1% β-mercaptoethanol and 4 ng/ml bFGF) containing mouse embryonic fibroblasts (MEF) treated with mitomycin-C as supporting cells Lee, T. H., et al., (2010). Functional recapitulation of smooth muscle cells via induced pluripotent stem cells from human aortic smooth muscle cells. Circ Res 106, 120-128). For the pretreatment of quercetin and YM-155 of the present invention, iPS was cultured in a matrigel-coated 60 mm dish containing […]1 medium (29106, Stem Cell Technology) to induce them into smooth muscle cells (SMC). Human aortic smooth muscle cells (HASMC) and human induced pluripotent stem cells-derived differentiated cells, i.e., human induced pluripotent stem cells-derived smooth muscle cells (iPS-SMC) were cultured in an SMCM medium (ScienCell research laboratories, cat #1101) as described in the reference (Lee et al., 2010). In order to confirm the selective apoptosis of undifferentiated human induced pluripotent stem cells by quercetin, human induced pluripotent stem cells (iPS) derived from human aortic smooth muscle cells (HASMC), HASMC, smooth muscle cell no. 1 differentiated-derived from iPS (iPS-SMC-1), and smooth muscle cell no. […]

Assay [2] concerns mixed cell population of human induced pluripotent stem cells-smooth muscle cells. Nature of the assay: Cleaved caspase-3 immunostaining in 1:1 mixed iPS / iPS-derived smooth muscle cell culture. The class given is cell-based. As to conditions: 50 μM quercetin, 24 hours; 1:1 mixture of iPS and iPS-derived SMC. The protocol: The scale bar denotes 100 μm. […] In order to confirm the functions of smooth muscle cells differentiated-derived from human induced pluripotent stem cells, the population, which was cultured by mixing human induced pluripotent stem cells and the smooth muscle cells differentiated-derived from the human induced pluripotent stem cells in a 1:1 ratio, was treated with 50 μM quercetin for 24 hours, and examined the cleavage type caspase-3 positive population in the population of SMA-positive population or SSEA-4-positive population.

The test system of assay [3] is undifferentiated induced pluripotent stem cells. Nature of the assay: Selective cell death of undifferentiated induced pluripotent stem cells (summary statement). The class given is cell-based, human. Conditions: treatment of induced pluripotent stem cells; differentiated cells not affected. The text has this: The present inventors have made intensive efforts to develop a method for obtaining pure differentiated cells from induced pluripotent stem cells, and in particular, a method for obtaining only the pure differentiated cells by removing the possibility of a tumor formation by the undifferentiated induced pluripotent stem cells causing teratoma formation.

For another assay, the system named is HASMC and iPS-SMC3. The assay can be described thus: α-SMA expression by immunofluorescence. The format is cell-based, human. As to conditions: 50 μM quercetin, 24 hours. The procedure:
Human aortic smooth muscle cells (HASMC) and human induced pluripotent stem cells-derived differentiated cells, i.e., human induced pluripotent stem cells-derived smooth muscle cells (iPS-SMC) were cultured in an SMCM medium (ScienCell research laboratories, cat #1101) as described in the reference (Lee et al., 2010). As the first antibody used in IFA was anti-α-smooth muscle actin (α-SMA) (Dako Inc, Carpinteria, Calif.). Images were obtained using Axioscope A1 microscope (Carl Zeiss) and analyzed.

Assay [4] concerns human induced pluripotent stem cells (iPS). Nature of the assay: Immunoblotting of apoptosis marker proteins in cell lysate. The format is cell-based. Conditions: 50 μM quercetin, 24 hours. An excerpt: The antibodies used in the immunoblotting assay and anti-PARP1 (SC-7150) and anti-β-actin (SC-47778) were purchased from Santa Cruz Biotech Inc. (CA, USA). Additionally, anti-caspase-9 (Cat#9502) and anti-cleaved caspase-3 (Cat#9661) purchased from Cell Signaling Technology (Danvers, Mass., USA). In order to confirm the selective apoptosis of undifferentiated human induced pluripotent stem cells by quercetin, human induced pluripotent stem cells (iPS) derived from human aortic smooth muscle cells (HASMC), HASMC, smooth muscle cell no. 1 differentiated-derived from iPS (iPS-SMC-1), and smooth muscle cell no.

Entries after “also recorded” stand apart in the source; their conditions may differ.

Turning to `O=c1c(O)c(-c2ccc(O)c(O)c2)oc2cc(O)cc(O)c12` [quercetin, 2-(3,4-dihydroxyphenyl)-3,5,7-trihydroxy-4H-chromen-4-one], the “intracellular calcium response (function as smooth muscle cells)” value in the assay on iPS-SMC1 and iPS-SMC3 was “confirmed the functions as smooth muscle cells”. For the same molecule, the “apoptosis-specific phenotypic cell type” value in assay [1] (50 μM quercetin, 24 hours, iPS vs HASMC, iPS-SMC-1, iPS-SMC-3) is recorded as “exhibited a distinct apoptosis-specific cell phenotype; also recorded: distinctive apoptosis-specific phenotypic cell type was discovered”. For the same molecule, in assay [1] (various concentrations of quercetin (QC), iPS), the “degree of apoptosis (apoptosis-specific phenotypic cell type) at various concentrations” value is recorded as “concentration-dependent”. In assay [2], the “cleavage type caspase-3 positive population in SSEA-4-positive vs SMA-positive population” value is on record as “excellent cleavage type caspase-3 positive population within the SSEA-4 positive population”. Besides, in assay [3], the “selective killing of undifferentiated induced pluripotent stem cells” value is “only the undifferentiated induced pluripotent stem cells were effectively and selectively killed”. In addition, the “expression of α-SMA (immunofluorescence)” value with HASMC and iPS-SMC3 is reported as “the expression of α-SMA was confirmed”. Also, the “apoptosis marker proteins: cleavage of Parp-1, cleaved caspase-3 and caspase-9” value in assay [4] was “exhibited the expression of Parp-1 cleavage (T type), cleavage types of caspase-3 and caspase-9”.
